Here are results for three molecules from patent US6159705A, “Recombinant yeast cells for identifying receptor effectors” (Cadus Pharmaceutical Corporation, priority 1997, dated 2000).

Series [1] addresses T1, Ste2p (Saccharomyces cerevisiae, UniProt D6VTK4).
T1 construct: CY 1638 (MATa far1*1442 tbt1-1 FUS1-HIS3 trp1ura3 leu2 his3 suc2); endogenous in cells; host or cells: S. cerevisiae CY 11643 (MATa, pho3 and pho4 disrupted, from CY 1638 via CY 9788), carrying PHO4/STE12 chimera plasmids or Cadus 4129
T1 sequence (D6VTK4 1-431): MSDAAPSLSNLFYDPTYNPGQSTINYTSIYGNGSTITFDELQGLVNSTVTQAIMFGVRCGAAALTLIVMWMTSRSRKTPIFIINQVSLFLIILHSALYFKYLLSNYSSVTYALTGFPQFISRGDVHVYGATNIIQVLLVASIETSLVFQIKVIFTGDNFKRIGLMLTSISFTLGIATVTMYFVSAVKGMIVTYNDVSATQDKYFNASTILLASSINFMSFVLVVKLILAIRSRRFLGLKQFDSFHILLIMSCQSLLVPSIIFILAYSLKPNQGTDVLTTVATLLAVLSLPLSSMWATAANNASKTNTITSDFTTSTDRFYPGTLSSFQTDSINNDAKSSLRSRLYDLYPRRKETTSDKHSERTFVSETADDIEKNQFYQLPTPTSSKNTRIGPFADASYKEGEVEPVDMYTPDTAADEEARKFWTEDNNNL
Kind of series: Pho5p acid phosphatase activity in strains with PHO4/STE12 chimerae (Ste2p activation). Type of series: cell-based, S. cerevisiae. On the procedure:
were used to amplify the KanMX2 gene. The amplification product was flanked by sequences corresponding to the 5' and 3' ends of the PHO4 gene. […] Transformants were selected on YEPD+geneticin (200 μg/ml) plates. […] Cells were patched onto YEPD or phosphate-depleted YEPD plates and allowed to grow overnight. For each plate, a mixture of 2 ml of molten 1% agarose in 50 mM NaAc pH 4.0, 700 μl H2 O, and 300 μl α-napthyl acid phosphate (50 mg/ml) was prepared and applied to the plate. Then 1 ml of D-dianisidine fast blue salt B (50 mg/ml in 50 mM NaAc pH 4.0) was poured onto the plate. The degree of color development is a measure of acid phosphatase activity produced by the patch of cells.
The PHO3 gene also encodes a secreted acid phosphatase, but its expression is not regulated by Pho4p. […] Since this gene is not essential and its presence would require that all assays be done under conditions of phosphate starvation, it was disrupted. Primers
were used to amplify sequences in the 3' untranslated region of the PHO3 gene. The amplification product which bears an EcoRI site ate its 5' end and an XbaI site at its 3' end was digested with EcoRI and XbaI and gel purified.
Cells were grown overnight in SD TRP- media. […] The cultures were split in half (2.5 ml each) and α-factor (25 μg) was added to one aliquot. After 2.5 hours at 30° C., the cells were collected by centrifugation, washed 3 times with H2 O, once with 50 mM NaAc pH 4.0, and resuspended in 250 μl 50 mM NaAc pH 4.0. […] 100 μl cells were added to 400 μl p-nitrophenyl phosphate (1 mg/ml in 50 mM NaAc pH 4.0). After 15 min at room temperature, 720 μl saturated NaCO3 was added to stop the reaction. The cells were removed by centrifugation and the optical density at 420 nm was determined.

Series [2] addresses T2, S. cerevisiae pheromone receptor, Ste2p (Saccharomyces cerevisiae, UniProt D6VTK4).
T2 sequence (D6VTK4 1-431): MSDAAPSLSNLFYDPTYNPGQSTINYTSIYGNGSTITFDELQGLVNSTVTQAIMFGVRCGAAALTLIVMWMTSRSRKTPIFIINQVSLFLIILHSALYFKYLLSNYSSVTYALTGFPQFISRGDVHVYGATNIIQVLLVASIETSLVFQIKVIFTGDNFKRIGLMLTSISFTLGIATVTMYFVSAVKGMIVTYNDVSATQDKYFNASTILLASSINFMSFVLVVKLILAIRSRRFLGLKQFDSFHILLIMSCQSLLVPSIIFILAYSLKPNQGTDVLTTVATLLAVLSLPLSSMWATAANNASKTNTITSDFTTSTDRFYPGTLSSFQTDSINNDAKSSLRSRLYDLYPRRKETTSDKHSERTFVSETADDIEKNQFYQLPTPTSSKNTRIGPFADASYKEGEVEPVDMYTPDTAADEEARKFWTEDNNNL
Kind of series: Bar1 plate assay, agonist-induced Ste2p activation. The class given is cell-based. The procedure:
The cells were removed from the culture by filtration.
Assay plates were prepared as follows. CY 579 cells were grown overnight in YEPD medium.
Since CY 579 lacks the BAR1 gene, it is super-sensitive to α-factor causing its growth to be arrested on the YEPD+α-factor plate. If the conditioned media applied to the lawn contains Bar1p activity, the α-factor in that region is destroyed, allowing growth of the CY 579 cells.
First, the gene encoding the S. cerevisiae Gα, GPA 1, was reintroduced into the genome of CY 8034 (MATa gpa1*1162 far1-1 ste2*1154 ste14::trp1::LYS2 fus1-HIS3 ura3 trp1 leu2 lys2 his3 ade2-1 met1) by transformation with an integrating plasmid encoding GPA1 (Cadus 3907), creating CY 11364. Next, the gene encoding the S. cerevisiae RGS protein, SST2, was disrupted in this strain to create CY 11645. Since Sst2p is involved in desensitization of the pheromone response pathway, its disruption results in increased signaling through the pathway (Reviewed by Sprague and Thorner in Molecular and Cellular Biology of the Yeast Saccharomyces. Vol. 2. 1992).
A high copy number Ste2 expression plasmid was constructed as follows. […]
(to OD600 0.4). […] A standard curve was also done with each experiment (described in Example 1) to quantitate the results.

Series [3] relates to FPRL-1. As to conditions: uM concentrations; cited from earlier work.
Series [4] has as its target C5a receptor. To be noted: data derived from mammalian cells; read-out: binding constant of C5a to its receptor; cited from earlier work.
Series [5] concerns induced HL60 cells. In words: Competition with radiolabeled C5a for binding on induced HL60 cells. To be noted: C5a expressed in yeast.
Series [6] has as its system human C5a receptor. In words: Autocrine activation, fus1-lacZ beta-galactosidase. Type of series: cell-based. As to conditions: R+L+ cells. On the procedure: CY878 (MATα tbt1-1 fus1-HIS3 caN1 ste14::trp1::LYS2 ste3* 1156 gpal(41)-Gαi2) was used as the starting strain for these experiments. This strain is a trp1 derivative of CY455. The transformants for this experiment contained CADUS 1584 (pRS424-fus1-lacZ) in addition to the receptor and ligand plasmids. Four strains were grown overnight in SD LEU URA TRP pH6.8 with 50 mM PIPES to an OD600 of less than 0.8. Assay of β-galactosidase activity can be done useing methods known in the art (Guarente 1983).

Series [7] concerns human C5a receptor. In words: Autocrine activation of pheromone pathway, growth read-out (fus1-HIS3). Type of series: cell-based. From the text:
The strain used for this analysis, CY455 (MATα tbt1-1 ura3 leu2 trp1 his3 fus1-HIS3 can1 ste14::TRP1 ste3* 1156) contains the following significant modifications. A pheromone inducible HIS3 gene, fus1-HIS3, is integrated at the Fus1 locus. A hybrid gene containing sequence encoding the first 41 amino acids of GPA1 (the yeast Gα subunit) fused to sequence encoding human Gαi2a (minus codons for the N-terminal 33 amino acids) replaces GPA1 at its normal chromosomal location. The yeast STE14 gene is disrupted to lower the basal level of signaling through the pheromone response pathway. The yeast a-factor receptor gene, STE3, is deleted. The last two modifications are probably not essential, but appear to improve the signal-to-noise ratio.
CY455 (MATα tbt1-1 ura3 leu2 trp1 his3 fus1-HIS3 can1 ste14::TRP1 ste3 * 1156) was transformed with the following plasmids:
Cadus 1303+Cadus 1297=Receptor^+ Ligand^+ =(R+L+)
Three colonies were picked from each transformation and grown overnight in media lacking leucine and uracil, at pH 6.8 with 25 mM PIPES (LEU URA pH6.8 with 25 mM PIPES). This media was made by adding 0.45 ml of sterile 1 M KOH and 2.5 ml of sterile 1M PIPES pH 6.8 to 100 ml of standard SD LEU- URA- media. […] The optical density at 600 nm of a 1/20 dilution of these cultures was determined and the cultures were diluted into 25 mM PIPES pH 6.8 to a final OD600 of 0.2. […]

With α-factor, the “acid phosphatase activity inducible by pheromone” value in series [1] (all strains expressing Pho4/Ste12 chimerae) is “pheromone-inducible acid phosphatase activity was observed”. In series [1] (cells expressing only the Pho4p DNA binding domain (CY11643+Cadus 4129)), the “change of acid phosphatase activity on exposure to α-factor” value is “not increased by exposure to α-factor”. Besides, the Pho5p induction ratio in series [1] (other chimerae with very low constitutive activity) is recorded as 5-10 fold; in series [1] (two chimerae with high constitutive activity (printed Cadus 4184 and Cadus 4185)), 2-4 fold. In series [2] (cells expressing Ste2p (CY 11728), α-factor 10 μg, 2 h, 30° C.), the “increase in Bar1p activity” value was “greater than 8 fold”. The “Bar1p activity in conditioned media” value in series [2] (cells lacking the Ste2p expression plasmid (CY 11727)) was “Little or no Bar1p activity was detected”.

Regarding `CSCC[C@H](NC=O)C(=O)N[C@@H](CC(C)C)C(=O)N[C@@H](Cc1ccccc1)C(=O)O` [f-Met-Leu-Phe], in series [3], the “binding to fibroblasts transfected with FPRL-1 cDNA” value is on record as “weak binding”.

B1: C5a: Human C5a is a 74 amino acid polypeptide that derives from the fifth component of complement (protein, UniProt P01031 678-751, looked up)
C5a anaphylatoxin: TLQKKIEEIAAKYKHSVVKKCCYDGACVNNDETCEQRAARISLGPRCIKAFTECCVVASQLRANISHKDMQLGR
modifications: C5a anaphylatoxin
notes: Human C5a is a 74 amino acid polypeptide that derives from the fifth component of complement
Regarding B1, in series [4], the Kd was 1 nM. Also, the “competition for binding with radiolabeled C5a” value in series [5] was “shown to compete for binding”. For the same molecule, the “autocrine stimulation and β-galactosidase activity” value in series [6] was “results in autocrine stimulation and β-galactosidase activity”. The “growth on selective plates lacking histidine” value in series [7] (R+L+ strain, C5a expressed by the cell) is “show growth on the selective plates”. Also, the “aminotriazole concentration up to which the R+L+ strain will grow” value in series [7] (highest concentration tested) is reported as “up to 5 mM”.
